Experimental data from ChEMBL document CHEMBL1201862, “PubChem BioAssay data set” (2004).
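Protocol summary: plate cells (96-well), add compound at 5 concentrations, incubate 48 h, interpolate endpoints linearly. Here, GI50 denotes the concentration required for 50% inhibition of growth.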 Activity calls are given as the source filed them. Rule as the data show it: active = GI50 up to about 1.1 µM and inactive = higher.

Experiments:
Test in all cases: inhibition of tumour cell growth, NCI panel, 48 h
786-0 = test system: 786-0
A549 = test system: A549
ACHN = test system: ACHN
COLO 205 = test system: COLO 205
HCC 2998 = test system: HCC 2998
HOP-62 = test system: HOP-62
HT-29 = test system: HT-29
M14 = test system: M14
MOLT-4 = test system: MOLT-4
NCI-H226 = test system: NCI-H226
OVCAR-4 = test system: OVCAR-4
SF-295 = test system: SF-295
SK-MEL-28 = test system: SK-MEL-28
SK-MEL-5 = test system: SK-MEL-5
SNB-19 = test system: SNB-19
UO-31 = test system: UO-31
UACC-257 = test system: UACC-257

| Structure (SMILES) | GI50 (786-0) | GI50 (A549) | GI50 (ACHN) | GI50 (COLO 205) | GI50 (HCC 2998) | GI50 (HOP-62) | GI50 (HT-29) | GI50 (M14) | GI50 (MOLT-4) | GI50 (NCI-H226) | GI50 (OVCAR-4) | GI50 (SF-295) | GI50 (SK-MEL-28) | GI50 (SK-MEL-5) | GI50 (SNB-19) | GI50 (UO-31) | GI50 (UACC-257) |
| --- | --- | --- | --- | --- | --- | --- | --- | --- | --- | --- | --- | --- | --- | --- | --- | --- | --- |
| O=c1[nH]n2c(=O)cc[nH]c2c1-c1nnns1 | > 100 µM (inactive) | > 100 µM (inactive) | > 100 µM (inactive) | > 100 µM (inactive) | > 100 µM (inactive) | > 100 µM (inactive) | > 100 µM (inactive) | > 100 µM (inactive) | > 100 µM (inactive) | > 100 µM (inactive) | > 100 µM (inactive) | > 100 µM (inactive) | > 100 µM (inactive) | > 100 µM (inactive) | > 100 µM (inactive) | > 100 µM (inactive) | – |
| NCCn1cnc2nc(NC(=O)c3ccccc3)[nH]c(=O)c21 | > 100 µM (inactive) | > 100 µM (inactive) | > 100 µM (inactive) | > 100 µM (inactive) | > 100 µM (inactive) | > 100 µM (inactive) | > 100 µM (inactive) | – | > 100 µM (inactive) | > 100 µM (inactive) | – | > 100 µM (inactive) | > 100 µM (inactive) | – | > 100 µM (inactive) | > 100 µM (inactive) | > 100 µM (inactive) |
| COc1ccc2c(c1OCC(=O)O)C(=O)C(CCC(=O)O)CC2 (configuration not stated) | > 100 µM (inactive) | > 100 µM (inactive) | > 100 µM (inactive) | > 100 µM (inactive) | > 100 µM (inactive) | > 100 µM (inactive) | > 100 µM (inactive) | > 100 µM (inactive) | > 100 µM (inactive) | – | > 100 µM (inactive) | > 100 µM (inactive) | > 100 µM (inactive) | > 100 µM (inactive) | > 100 µM (inactive) | – | > 100 µM (inactive) |
| O=C1C(=O)N(C2C3CC4CC(C3)CC2C4)C(=O)C(=O)C1c1nc2ccccc2o1 (configuration not stated) | 26.3 µM (inactive) | > 100 µM (inactive) | > 100 µM (inactive) | 51.6 µM (inactive) | 57.5 µM (inactive) | > 100 µM (inactive) | 20.7 µM (inactive) | 83 µM (inactive) | – | > 100 µM (inactive) | > 100 µM (inactive) | > 100 µM (inactive) | > 100 µM (inactive) | – | > 100 µM (inactive) | > 100 µM (inactive) | 26.1 µM (inactive) |
| Cc1nn(C)c(=S)n(C)c1=O | 3.27 µM (inactive) | 0.439 µM (active) | 0.387 µM (active) | 4.16 µM (inactive) | 4.1 µM (inactive) | 1.81 µM (inactive) | 24.8 µM (inactive) | 0.773 µM (active) | 1.29 µM (inactive) | 7.53 µM (inactive) | 5.83 µM (inactive) | 0.571 µM (active) | 0.571 µM (active) | – | 0.802 µM (active) | 0.229 µM (active) | 1.05 µM (active) |
| CC(=O)Oc1ccc2c(=O)c(C(C)=O)coc2c1 | > 100 µM (inactive) | > 100 µM (inactive) | > 100 µM (inactive) | > 100 µM (inactive) | – | > 100 µM (inactive) | > 100 µM (inactive) | > 100 µM (inactive) | > 100 µM (inactive) | 83.9 µM (inactive) | > 100 µM (inactive) | > 100 µM (inactive) | > 100 µM (inactive) | > 100 µM (inactive) | > 100 µM (inactive) | > 100 µM (inactive) | > 100 µM (inactive) |
| Cc1ccc(/C=N/C23CC4CC(CC(C4)C2)C3)cc1 | > 100 µM (inactive) | > 100 µM (inactive) | > 100 µM (inactive) | > 100 µM (inactive) | > 100 µM (inactive) | > 100 µM (inactive) | > 100 µM (inactive) | > 100 µM (inactive) | > 100 µM (inactive) | > 100 µM (inactive) | > 100 µM (inactive) | > 100 µM (inactive) | > 100 µM (inactive) | 84.1 µM (inactive) | – | – | > 100 µM (inactive) |
| CC(=O)O[C@]1(C)CCC2C(C)C(=O)OC2C2C(C)[C@@H](O)CC21 (some centres not stated) | 31.4 µM (inactive) | 52.7 µM (inactive) | 29.3 µM (inactive) | 20 µM (inactive) | 24.6 µM (inactive) | 19.3 µM (inactive) | 31.5 µM (inactive) | 20.8 µM (inactive) | – | 31.4 µM (inactive) | 26.2 µM (inactive) | 72.3 µM (inactive) | 34 µM (inactive) | 32.1 µM (inactive) | 28.3 µM (inactive) | 48.9 µM (inactive) | > 100 µM (inactive) |
| Cc1ccc(S(=O)(=O)c2ccc(N)cc2)cc1 | > 100 µM (inactive) | > 100 µM (inactive) | > 100 µM (inactive) | – | > 100 µM (inactive) | > 100 µM (inactive) | > 100 µM (inactive) | > 100 µM (inactive) | > 100 µM (inactive) | > 10 µM (inactive) | > 100 µM (inactive) | > 100 µM (inactive) | > 100 µM (inactive) | > 100 µM (inactive) | – | > 100 µM (inactive) | > 100 µM (inactive) |
| N/N=C(/Cc1nc2ccc(C(=O)c3ccccc3)cc2nc1O)C(=O)Nc1ccc([N+](=O)[O-])cc1[N+](=O)[O-] | 71.9 µM (inactive) | > 10 µM (inactive) | > 10 µM (inactive) | > 10 µM (inactive) | > 10 µM (inactive) | – | > 10 µM (inactive) | > 10 µM (inactive) | > 10 µM (inactive) | > 10 µM (inactive) | 27.3 µM (inactive) | > 10 µM (inactive) | > 10 µM (inactive) | 86.7 µM (inactive) | > 100 µM (inactive) | 68.2 µM (inactive) | > 100 µM (inactive) |
| Nc1ccc(C(=O)CC2(O)C(=O)Nc3c(Cl)cc(Cl)cc32)cc1 (configuration not stated) | > 100 µM (inactive) | > 100 µM (inactive) | 94.8 µM (inactive) | > 100 µM (inactive) | > 100 µM (inactive) | > 100 µM (inactive) | > 100 µM (inactive) | > 100 µM (inactive) | 46.8 µM (inactive) | > 100 µM (inactive) | > 100 µM (inactive) | > 100 µM (inactive) | > 100 µM (inactive) | – | > 100 µM (inactive) | > 100 µM (inactive) | 75.5 µM (inactive) |
| O=[N+]([O-])c1cc(I)cc(/C=N/NS(=O)(=O)c2ccc(Cl)cc2)c1O | 21.1 µM (inactive) | 35.8 µM (inactive) | 22.8 µM (inactive) | 18.9 µM (inactive) | 22.1 µM (inactive) | 25.6 µM (inactive) | 16.3 µM (inactive) | 25.2 µM (inactive) | 19.5 µM (inactive) | – | 30.5 µM (inactive) | 25.6 µM (inactive) | 27.7 µM (inactive) | 18 µM (inactive) | 29.9 µM (inactive) | 20.1 µM (inactive) | 24.4 µM (inactive) |
| CCOC(=O)c1oc2c(OC)cc(Cl)c3c2c1CCC3 | 30.8 µM (inactive) | 59.8 µM (inactive) | 30.3 µM (inactive) | > 100 µM (inactive) | > 100 µM (inactive) | – | > 100 µM (inactive) | > 100 µM (inactive) | > 100 µM (inactive) | 12.2 µM (inactive) | 38.6 µM (inactive) | 58.1 µM (inactive) | 58.3 µM (inactive) | > 100 µM (inactive) | 31.5 µM (inactive) | 28.6 µM (inactive) | > 100 µM (inactive) |
